Experimental data published in patent publication US20180024136A1, “Development of ABCG2-Sensitive Fluorescent Probe For Isolation of ABCG2low Neural Stem/Progenitor Cells” (National University of Singapore, priority 2015, published 2018).
Each block holds one compound with its values, some of them ahead of it.

Assay: Spectroscopic properties of CF library (absorbance, emission, quantum yield, extinction coefficient)
Assay type: physicochemical
Conditions: 100 μM in ethanol; for QY (Φ): reference fluorescein
Procedure: All the chemicals and solvents were purchased from Sigma Aldrich, Alfa Aesar, Fluka, MERCK, Tocris or Acros, and used without further purification. Normal phase purifications were carried out using Merck Silica Gel 60 (particle size: 0.040-0.063 mm, 230-400 mesh). Analytical characterization was performed on a HPLC-MS (Agilent-1200 series) with a DAD detector and a single quadrupole mass spectrometer (6130 series) with an ESI probe. ^1H-NMR and ^13C-NMR spectra were recorded on Bruker Avance 300 MHz NMR spectrometers, and chemical shifts are expressed in parts per million (ppm) and coupling constants are reported as a J value in Hertz (Hz). High resolution mass spectrometry (HRMS) data was recorded on a Micro mass VG 7035 (Mass Spectrometry Laboratory at National University of Singapore (NUS)). Spectroscopic and quantum yield data were measured on spectroscopic measurements, performed on a fluorometer and UV/VIS instrument, Synergy 4 of Bioteck Company. The slit width was 1 nm for both excitation and emission, and the data analysis was performed using GraphPrism 5.0.

Abs (nm): 520 nm
Em (nm): 559 nm
QY (Φ): 0.40
Compound: CCC(NC(=O)c1ccc(-c2c3cc(Cl)c(=O)cc-3oc3cc(O)c(Cl)cc23)cc1)c1ccccc1 (stereo not drawn) [CF-A3]

Abs (nm): 520 nm
Em (nm): 557 nm
QY (Φ): 0.43
Compound: CC(Cc1ccccc1)NC(=O)c1ccc(-c2c3cc(Cl)c(=O)cc-3oc3cc(O)c(Cl)cc23)cc1 (stereo not drawn) [CF-A6]

Abs (nm): 520 nm
Em (nm): 557 nm
QY (Φ): 0.63
Compound: O=C(NC1CCCCC1)c1ccc(-c2c3cc(Cl)c(=O)cc-3oc3cc(O)c(Cl)cc23)cc1 [CF-A9]

Abs (nm): 520 nm
Em (nm): 558 nm
QY (Φ): 0.53
Compound: O=C(NC1CC1)c1ccc(-c2c3cc(Cl)c(=O)cc-3oc3cc(O)c(Cl)cc23)cc1 [CF-B2]

Abs (nm): 520 nm
Em (nm): 557 nm
QY (Φ): 0.32
Compound: COCCNC(=O)c1ccc(-c2c3cc(Cl)c(=O)cc-3oc3cc(O)c(Cl)cc23)cc1 [CF-B3]

Abs (nm): 520 nm
Em (nm): 556 nm
QY (Φ): 0.70
Compound: O=C(c1ccc(-c2c3cc(Cl)c(=O)cc-3oc3cc(O)c(Cl)cc23)cc1)N1CCCC1 [CF-B7]

Abs (nm): 520 nm
Em (nm): 559 nm
QY (Φ): 0.57
Compound: CC(C)NC(=O)c1ccc(-c2c3cc(Cl)c(=O)cc-3oc3cc(O)c(Cl)cc23)cc1 [CF-B8]

Abs (nm): 520 nm
Em (nm): 558 nm
QY (Φ): 0.60
Compound: CCCCC(CC)CNC(=O)c1ccc(-c2c3cc(Cl)c(=O)cc-3oc3cc(O)c(Cl)cc23)cc1 (stereo not drawn) [CF-B9]

Abs (nm): 520 nm
Em (nm): 558 nm
QY (Φ): 0.66
Compound: CCCCCCCNC(=O)c1ccc(-c2c3cc(Cl)c(=O)cc-3oc3cc(O)c(Cl)cc23)cc1 [CF-B11]

Abs (nm): 520 nm
Em (nm): 558 nm
QY (Φ): 0.42
Compound: CC1CCCCC1NC(=O)c1ccc(-c2c3cc(Cl)c(=O)cc-3oc3cc(O)c(Cl)cc23)cc1 (stereo not drawn) [CF-C7]

Abs (nm): 520 nm
Em (nm): 558 nm
QY (Φ): 0.68
Compound: CC(C)CCNC(=O)c1ccc(-c2c3cc(Cl)c(=O)cc-3oc3cc(O)c(Cl)cc23)cc1 [CF-C8]

Abs (nm): 520 nm
Em (nm): 558 nm
QY (Φ): 0.25
Compound: CCCNC(=O)c1ccc(-c2c3cc(Cl)c(=O)cc-3oc3cc(O)c(Cl)cc23)cc1 [CF-D9]

Abs (nm): 520 nm
Em (nm): 558 nm
QY (Φ): 0.47
Compound: CCOCCCNC(=O)c1ccc(-c2c3cc(Cl)c(=O)cc-3oc3cc(O)c(Cl)cc23)cc1 [CF-E4]

Abs (nm): 520 nm
Em (nm): 556 nm
QY (Φ): 0.58
Compound: O=C(NC1CCCC1)c1ccc(-c2c3cc(Cl)c(=O)cc-3oc3cc(O)c(Cl)cc23)cc1 [CF-E5]

Abs (nm): 520 nm
Em (nm): 557 nm
QY (Φ): 0.29
Compound: CC(C)C(C)NC(=O)c1ccc(-c2c3cc(Cl)c(=O)cc-3oc3cc(O)c(Cl)cc23)cc1 (stereo not drawn) [CF-E6]

Abs (nm): 520 nm
Em (nm): 557 nm
QY (Φ): 0.34
Compound: CC(C)OCCCNC(=O)c1ccc(-c2c3cc(Cl)c(=O)cc-3oc3cc(O)c(Cl)cc23)cc1 [CF-F9]

The next lines start with the compound.

Compound: CCCCCCCCCCCCCCNC(=O)c1ccc(-c2c3cc(Cl)c(=O)cc-3oc3cc(O)c(Cl)cc23)cc1 [CF-A2]
Abs (nm): 520 nm
Em (nm): 558 nm
QY (Φ): 0.42

Compound: CCCCCCCCCCCCCNC(=O)c1ccc(-c2c3cc(Cl)c(=O)cc-3oc3cc(O)c(Cl)cc23)cc1 [CF-A4]
Abs (nm): 520 nm
Em (nm): 558 nm
QY (Φ): 0.26

Compound: O=C(c1ccc(-c2c3cc(Cl)c(=O)cc-3oc3cc(O)c(Cl)cc23)cc1)N1CCc2ccccc2C1 [CF-A5]
Abs (nm): 520 nm
Em (nm): 556 nm
QY (Φ): 0.75

Compound: O=C(NCc1c(F)cccc1F)c1ccc(-c2c3cc(Cl)c(=O)cc-3oc3cc(O)c(Cl)cc23)cc1 [CF-A7]
Abs (nm): 520 nm
Em (nm): 560 nm
QY (Φ): 0.58

Compound: O=C(NCc1ccc(OC(F)(F)F)cc1)c1ccc(-c2c3cc(Cl)c(=O)cc-3oc3cc(O)c(Cl)cc23)cc1 [CF-A8]
Abs (nm): 520 nm
Em (nm): 558 nm
QY (Φ): 0.37

Compound: CN(C(=O)c1ccc(-c2c3cc(Cl)c(=O)cc-3oc3cc(O)c(Cl)cc23)cc1)C1CCCCC1 [CF-A10]
Abs (nm): 520 nm
Em (nm): 558 nm
QY (Φ): 0.63

Compound: CCCN(CCC)C(=O)c1ccc(-c2c3cc(Cl)c(=O)cc-3oc3cc(O)c(Cl)cc23)cc1 [CF-A11]
Abs (nm): 520 nm
Em (nm): 558 nm
QY (Φ): 0.36

Compound: CCCCN(CC)C(=O)c1ccc(-c2c3cc(Cl)c(=O)cc-3oc3cc(O)c(Cl)cc23)cc1 [CF-B4]
Abs (nm): 520 nm
Em (nm): 556 nm
QY (Φ): 0.90

Compound: CCCCC(CC)COCCCNC(=O)c1ccc(-c2c3cc(Cl)c(=O)cc-3oc3cc(O)c(Cl)cc23)cc1 (stereo not drawn) [CF-B5]
Abs (nm): 520 nm
Em (nm): 559 nm
QY (Φ): 0.54

Compound: CN(Cc1ccccc1)C(=O)c1ccc(-c2c3cc(Cl)c(=O)cc-3oc3cc(O)c(Cl)cc23)cc1 [CF-B6]
Abs (nm): 520 nm
Em (nm): 558 nm
QY (Φ): 0.77

Compound: COc1ccc(CCNC(=O)c2ccc(-c3c4cc(Cl)c(=O)cc-4oc4cc(O)c(Cl)cc34)cc2)cc1OC [CF-B10]
Abs (nm): 520 nm
Em (nm): 559 nm
QY (Φ): 0.56

Compound: CC(C)N(Cc1ccccc1)C(=O)c1ccc(-c2c3cc(Cl)c(=O)cc-3oc3cc(O)c(Cl)cc23)cc1 [CF-C2]
Abs (nm): 520 nm
Em (nm): 559 nm
QY (Φ): 0.78

Compound: CCCCCCCCNC(=O)c1ccc(-c2c3cc(Cl)c(=O)cc-3oc3cc(O)c(Cl)cc23)cc1 [CF-C3]
Abs (nm): 520 nm
Em (nm): 559 nm
QY (Φ): 0.37

Compound: COc1cccc(CNC(=O)c2ccc(-c3c4cc(Cl)c(=O)cc-4oc4cc(O)c(Cl)cc34)cc2)c1 [CF-C4]
Abs (nm): 520 nm
Em (nm): 559 nm
QY (Φ): 0.55

Compound: COc1ccc(CCNC(=O)c2ccc(-c3c4cc(Cl)c(=O)cc-4oc4cc(O)c(Cl)cc34)cc2)cc1 [CF-C5]
Abs (nm): 520 nm
Em (nm): 558 nm
QY (Φ): 0.63

Compound: CCCN(CC1CC1)C(=O)c1ccc(-c2c3cc(Cl)c(=O)cc-3oc3cc(O)c(Cl)cc23)cc1 [CF-C6]
Abs (nm): 520 nm
Em (nm): 554 nm
QY (Φ): 0.58

Compound: O=C(NC1CCCCCC1)c1ccc(-c2c3cc(Cl)c(=O)cc-3oc3cc(O)c(Cl)cc23)cc1 [CF-C9]
Abs (nm): 520 nm
Em (nm): 558 nm
QY (Φ): 0.50

Compound: Cc1ccc(CCNC(=O)c2ccc(-c3c4cc(Cl)c(=O)cc-4oc4cc(O)c(Cl)cc34)cc2)cc1 [CF-C10]
Abs (nm): 520 nm
Em (nm): 558 nm
QY (Φ): 0.54

Compound: O=C(NCCCN1CCCC1=O)c1ccc(-c2c3cc(Cl)c(=O)cc-3oc3cc(O)c(Cl)cc23)cc1 [CF-D2]
Abs (nm): 520 nm
Em (nm): 557 nm
QY (Φ): 0.61

Compound: CC1CN(C(=O)c2ccc(-c3c4cc(Cl)c(=O)cc-4oc4cc(O)c(Cl)cc34)cc2)CC(C)O1 (stereo not drawn) [CF-D3]
Abs (nm): 520 nm
Em (nm): 555 nm
QY (Φ): 0.47

Compound: CN(CCc1ccccc1)C(=O)c1ccc(-c2c3cc(Cl)c(=O)cc-3oc3cc(O)c(Cl)cc23)cc1 [CF-D4]
Abs (nm): 520 nm
Em (nm): 555 nm
QY (Φ): 0.69

Compound: CCN(Cc1ccccc1)C(=O)c1ccc(-c2c3cc(Cl)c(=O)cc-3oc3cc(O)c(Cl)cc23)cc1 [CF-D5]
Abs (nm): 520 nm
Em (nm): 555 nm
QY (Φ): 0.66

Compound: CCCCCCCCCCCCCCCCCCNC(=O)c1ccc(-c2c3cc(Cl)c(=O)cc-3oc3cc(O)c(Cl)cc23)cc1 [CF-D6]
Abs (nm): 520 nm
Em (nm): 555 nm
QY (Φ): 0.32

Compound: Cc1cccc(CN(C)C(=O)c2ccc(-c3c4cc(Cl)c(=O)cc-4oc4cc(O)c(Cl)cc34)cc2)c1 [CF-D7]
Abs (nm): 520 nm
Em (nm): 555 nm
QY (Φ): 0.54

Compound: O=C(NC1Cc2ccccc2C1)c1ccc(-c2c3cc(Cl)c(=O)cc-3oc3cc(O)c(Cl)cc23)cc1 [CF-D8]
Abs (nm): 520 nm
Em (nm): 558 nm
QY (Φ): 0.47

Compound: O=C(NCCC(c1ccccc1)c1ccccc1)c1ccc(-c2c3cc(Cl)c(=O)cc-3oc3cc(O)c(Cl)cc23)cc1 [CF-D10]
Abs (nm): 520 nm
Em (nm): 558 nm
QY (Φ): 0.59

Compound: O=C(NCCCCc1ccccc1)c1ccc(-c2c3cc(Cl)c(=O)cc-3oc3cc(O)c(Cl)cc23)cc1 [CF-D11]
Abs (nm): 520 nm
Em (nm): 558 nm
QY (Φ): 0.44

Compound: O=C(NCc1c(Cl)cccc1Cl)c1ccc(-c2c3cc(Cl)c(=O)cc-3oc3cc(O)c(Cl)cc23)cc1 [CF-E2]
Abs (nm): 520 nm
Em (nm): 557 nm
QY (Φ): 0.63

Compound: CCCCN(CCCC)C(=O)c1ccc(-c2c3cc(Cl)c(=O)cc-3oc3cc(O)c(Cl)cc23)cc1 [CF-E3]
Abs (nm): 520 nm
Em (nm): 554 nm
QY (Φ): 0.66

Compound: COc1cccc(CCNC(=O)c2ccc(-c3c4cc(Cl)c(=O)cc-4oc4cc(O)c(Cl)cc34)cc2)c1OC [CF-E7]
Abs (nm): 520 nm
Em (nm): 557 nm
QY (Φ): 0.46

Compound: COc1ccccc1CCNC(=O)c1ccc(-c2c3cc(Cl)c(=O)cc-3oc3cc(O)c(Cl)cc23)cc1 [CF-F8]
Abs (nm): 520 nm
Em (nm): 559 nm
QY (Φ): 0.34

Compound: CCCCCCN(C)C(=O)c1ccc(-c2c3cc(Cl)c(=O)cc-3oc3cc(O)c(Cl)cc23)cc1 [CF-F10]
Abs (nm): 520 nm
Em (nm): 559 nm
QY (Φ): 0.35
